Results on one compound are retold here after paper PMC12406192, “Sustainable Joullié–Ugi and Continuous Flow Implementation Led to Novel Captopril-Inspired Broad-Spectrum Metallo-β-Lactamase Inhibitors” (Journal of Medicinal Chemistry, 2025).

Experiment [1] addresses T1, human angiotensin-converting enzyme 1 (ACE-1) (Homo sapiens, UniProt P12821).
T1 construct: purchased Sigma-Aldrich CS0002
As to the kind of experiment: ACE Activity Assay Kit, fluorogenic substrate. The class given is biochemical. Particulars: 50 μM inhibitor. The protocol: To assess the selectivity of the compounds, their inhibitory activity on human angiotensin-converting enzyme 1 (ACE-1) was performed using the ACE Activity Assay Kit (Sigma-Aldrich cat. No. CS0002). […] Captopril (racemic mixture, D- and L-stereoisomers) was used as control in these experiments.

Experiment [2] deals with E. coli SI–N003 (bla NDM‑7 +). The class given is cell-based. Conditions: compound at 32 μg/mL; median of three experiments. The protocol:
(§1) In vitro antimicrobial susceptibility testing was performed according to established standards. […] The strains used in the study were described elsewhere.

The subject of experiment [3] is E. coli SI-G001 (bla NDM‑4 +). In kind it is cell-based. Conditions: compound at 32 μg/mL; median of three experiments. The protocol:
as §1

The target of experiment [4] is T2, VIM-2 (Escherichia coli, UniProt Q5U7L7).
T2 construct: made in house; host or cells: E. coli
As to the kind of experiment: biochemical. Conditions: competitive model, imipenem reporter substrate; read-out: K i VIM-2.

For a further experiment, the target named is T3, IMP-1 (Serratia marcescens, UniProt P52699).
T3 construct: made in house; host or cells: E. coli
As to the kind of experiment: biochemical. The protocol:
(§2) IC50 values were determined in a kinetic fluorescence-based in vitro assay as described previously. All compounds were preincubated with the recombinant protein for 30 min before addition of the fluorogenic substrate fluorocillin. , The inhibitory activity was also determined (expressed as the percentage of inhibition in the presence of 50 μM compound) using a spectrophotometric assay in which the hydrolysis of imipenem (the reporter substrate) was monitored (see Section for details).
(§3) The inhibitory activity of the compounds was determined using enzyme assays with recombinant NDM-1, VIM-1, VIM-2, IMP-1, and IMP-7. These enzymes were produced in E. coli and purified as previously described. , The fluorogenic substrate fluorocillin was synthesized according to the procedure described by Rukavishnikov et al. The assays were performed in 96-well format using black polystyrene plates (Corning, Corning, NY) at room temperature, and the measurements were carried out on the Tecan spectrophotometer Infinite F200 PRO (Tecan, Männedorf, Switzerland). The protein stock solutions were diluted in assay buffer (HEPES 50 mM, pH 7.5 containing 0.01%Triton X-100, buffer HX) to reach final concentrations of VIM-1–4 nM, IMP-7–0.1 nM; NDM-1–3 nM. Subsequently, 89 μL of the protein solution was mixed with 1 μL of the inhibitor diluted in DMSO (final DMSO concentration 1% at final assay volume of 100 μL) and incubated for 30 min. […] Negative controls were measured in the absence of enzyme (89 μL of assay buffer), whereas the positive controls were measured in the presence of enzyme and in the absence of inhibitors (1 μL of DMSO). Each measurement was performed in triplicate in three independent experiments. IC50 values were calculated using data obtained from measurements with at least eight different inhibitor concentrations, applying a sigmoidal dose–response (variable slope with four parameters) equation using GraphPad Prism 5 (GraphPad Software, La Jolla, CA) software. […] All assays were performed in at least in triplicate.

Experiment [5] addresses T2, VIM-2. As to the kind of experiment: biochemical. Conditions: read-out: percentage of inhibition VIM-2. The protocol:
as §2, §3

Experiment [6] relates to MBL-producing clinical isolates. As to the kind of experiment: Synergistic activity with imipenem on the whole panel of clinical isolates. In kind it is cell-based. The protocol:
(§4) In vitro antimicrobial susceptibility testing was performed according to established standards. […]. The strains used in the study were described elsewhere.

Experiment [7] addresses T4, NDM-1 (Klebsiella pneumoniae, UniProt C7C422).
T4 construct: made in house; host or cells: E. coli
As to the kind of experiment: Kinetic fluorescence-based in vitro assay with fluorocillin substrate (IC50). In kind it is biochemical. Conditions: 30 min preincubation. The protocol:
as §2, §3

The target in experiment [8] is T4, NDM-1. As to the kind of experiment: Spectrophotometric direct competition assay, imipenem hydrolysis (reporter substrate). In kind it is biochemical. The protocol: as §2, §3
Experiment [9] concerns A. baumannii AC-54/97 (bla IMP‑2 +). As to the kind of experiment: Imipenem MIC, broth microdilution, with fixed concentration of compound. In kind it is cell-based. Particulars: compound at 32 μg/mL; median of three experiments. The protocol:
as §1
In general terms: In broth dilution the organism is exposed to a series of concentrations in liquid medium.

In experiment [10] the test system is K. pneumoniae 7023 (bla VIM‑1 +). The experiment is described as above. In kind it is cell-based. Conditions: compound at 32 μg/mL; median of three experiments. The protocol: as §1
In experiment [11] the test system is K. pneumoniae VA-416/02 (bla VIM‑4 +). The description is as above. In kind it is cell-based. Particulars: compound at 32 μg/mL; median of three experiments. The protocol:
as §1

Experiment [12] relates to S. marcescens SI-1591 (bla VIM‑2 +). As to the kind of experiment: microbe, parasite or virus in culture. Particulars: compound at 32 μg/mL; median of three experiments. In kind it is cell-based. The protocol: as §1
The test system of experiment [13] is E. coli SI-M001 (bla NDM‑1 +). As to the kind of experiment: Imipenem MIC, broth microdilution, with fixed concentration of compound. The class given is cell-based. Conditions: compound at 32 μg/mL; median of three experiments. The protocol:
as §4

T4 sequence (C7C422 29-270 limits assumed): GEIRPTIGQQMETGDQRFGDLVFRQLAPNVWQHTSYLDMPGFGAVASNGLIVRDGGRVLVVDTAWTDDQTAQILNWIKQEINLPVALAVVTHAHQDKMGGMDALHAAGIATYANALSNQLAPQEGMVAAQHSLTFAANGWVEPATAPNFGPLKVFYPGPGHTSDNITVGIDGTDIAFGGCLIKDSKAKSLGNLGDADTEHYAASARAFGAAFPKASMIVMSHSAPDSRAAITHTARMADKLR
T3 sequence (P52699 19-246, looked up, species assumed): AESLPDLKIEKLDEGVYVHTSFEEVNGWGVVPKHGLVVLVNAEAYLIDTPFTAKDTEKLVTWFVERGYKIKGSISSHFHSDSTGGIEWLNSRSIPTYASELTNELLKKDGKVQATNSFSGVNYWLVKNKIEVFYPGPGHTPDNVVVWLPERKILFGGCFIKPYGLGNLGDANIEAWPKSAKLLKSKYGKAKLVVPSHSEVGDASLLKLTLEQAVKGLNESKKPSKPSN
T1 sequence (P12821 30-1306): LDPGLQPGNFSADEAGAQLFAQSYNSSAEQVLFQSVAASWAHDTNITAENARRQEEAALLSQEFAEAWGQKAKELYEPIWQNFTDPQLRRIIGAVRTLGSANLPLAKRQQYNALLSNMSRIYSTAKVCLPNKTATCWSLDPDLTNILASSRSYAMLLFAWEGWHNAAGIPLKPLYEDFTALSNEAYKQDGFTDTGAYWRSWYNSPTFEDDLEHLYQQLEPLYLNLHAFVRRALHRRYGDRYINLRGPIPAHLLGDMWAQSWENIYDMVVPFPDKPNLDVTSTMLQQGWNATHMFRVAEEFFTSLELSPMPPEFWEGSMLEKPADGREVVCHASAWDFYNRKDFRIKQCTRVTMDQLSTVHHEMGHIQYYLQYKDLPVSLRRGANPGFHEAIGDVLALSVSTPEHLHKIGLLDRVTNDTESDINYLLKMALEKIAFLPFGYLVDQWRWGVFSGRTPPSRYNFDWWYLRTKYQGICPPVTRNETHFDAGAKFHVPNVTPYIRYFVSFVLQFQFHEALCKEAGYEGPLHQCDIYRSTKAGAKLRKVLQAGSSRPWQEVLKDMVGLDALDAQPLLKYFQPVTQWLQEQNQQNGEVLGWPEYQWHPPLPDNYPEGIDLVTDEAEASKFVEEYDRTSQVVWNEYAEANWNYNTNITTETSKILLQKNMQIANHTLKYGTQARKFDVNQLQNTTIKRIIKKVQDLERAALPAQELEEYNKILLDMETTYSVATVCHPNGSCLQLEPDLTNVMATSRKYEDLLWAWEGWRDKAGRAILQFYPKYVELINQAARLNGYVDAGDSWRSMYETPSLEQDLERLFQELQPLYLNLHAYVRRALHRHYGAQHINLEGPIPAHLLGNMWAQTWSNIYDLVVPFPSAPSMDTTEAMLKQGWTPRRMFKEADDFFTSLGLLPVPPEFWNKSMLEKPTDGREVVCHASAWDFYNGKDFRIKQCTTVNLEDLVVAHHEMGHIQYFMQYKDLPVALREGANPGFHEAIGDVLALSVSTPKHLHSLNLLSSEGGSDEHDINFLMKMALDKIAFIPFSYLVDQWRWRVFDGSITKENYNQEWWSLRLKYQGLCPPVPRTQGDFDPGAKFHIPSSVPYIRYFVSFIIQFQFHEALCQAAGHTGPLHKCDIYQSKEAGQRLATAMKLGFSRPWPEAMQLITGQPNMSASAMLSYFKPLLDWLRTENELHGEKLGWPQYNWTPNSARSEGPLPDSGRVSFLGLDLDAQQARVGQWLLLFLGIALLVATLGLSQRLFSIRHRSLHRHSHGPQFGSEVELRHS

For `C[C@H](CS)C(=O)N1c2ccccc2C2(CCCCC2)[C@H]1C(N)=O` [6e, (S)-1′-((S)-3-Mercapto-2-methylpropanoyl)spiro[cyclohexane-1,3′-indoline]-2′-carboxamide], the inhibition (usually the drop in the measured response relative to a control, in per cent) at 50 µM was less than 5% in [1], 68% on IMP-1 (read-out: percentage of inhibition IMP-1), 97% on VIM-2 [5] and 86% at NDM-1 [8] (read-out: percentage of inhibition NDM-1). Further, in [2], the “imipenem MIC, E. coli SI–N003 (bla NDM‑7 +)” value stood at 64 µg/mL. Further, in [3], the “imipenem MIC, E. coli SI-G001 (bla NDM‑4 +)” value was determined as 64 µg/mL. In addition, the Ki at VIM-2 [4] was determined as 100 ± 10 nM; on IMP-1 (competitive model, imipenem reporter substrate, read-out: K i IMP-1) it was 3800 ± 300 nM; at NDM-1 [8] (competitive model, imipenem reporter substrate, read-out: K i NDM-1), 2000 ± 100 nM. Further, the “potentiation of imipenem (change of imipenem MIC) on the panel, in words” value in experiment [6] is reported as “unable to reduce the imipenem MIC”. 7400 nM corresponded to half-maximal inhibition on NDM-1 [7] (IC50). Moreover, the “imipenem MIC, A. baumannii AC-54/97 (bla IMP‑2 +)” value in experiment [9] amounted to 128 µg/mL. Also, in experiment [10], the “imipenem MIC, K. pneumoniae 7023 (bla VIM‑1 +)” value stood at 64 µg/mL. Further, the “imipenem MIC, K. pneumoniae VA-416/02 (bla VIM‑4 +)” value in [11] was found to be 64 µg/mL. Moreover, the “imipenem MIC, S. marcescens SI-1591 (bla VIM‑2 +)” value in experiment [12] turned out to be 16 µg/mL. Further, the “imipenem MIC, E. coli SI-M001 (bla NDM‑1 +)” value in experiment [13] came to 32 µg/mL.
